Assay results published in patent US20100256230A1, “1-BUTANE ACID DERIVATIVES, PHARMACEUTICAL COMPOSITIONS CONTAINING SAID DERIVATIVES AND THE USE THEREOF” (SCHEBO BIOTECH AG, priority 2001, published 2010).

Assays:
Novikoff hepatoma cells = experiment: Proliferation inhibition of Novikoff hepatoma cells (cell count after four days of cultivation); format: cell-based; details: Novikoff hepatoma cells, 100,000 cells seeded per 25 cm2 bottle, counted after four days of cultivation, compared to control without compound; FIGS. 1 and 2
Procedure: The cell density was measured after four days of cultivation.
The cell density was measured after 4 days of cultivation.
The Novikoff hepatoma cells utilized in this example were obtained from the tumor bank of the Deutsches Krebsforschungszentrum, Heidelberg (Cancer Research 1951, 17, 1010). 100,000 cells each are seeded per 25 cm^2 cultivation bottle. The substance according to Example 1 of the invention, dissolved in a solvent suitable for use in cell cultures, for instance water, diluted ethanol, dimethylsulfoxide or the like, was added in an increasing concentration to the culture medium, e.g. L-cycloserine (compound 16) or dehydrothreonine (compound 2) in a concentration range of 80 μM-5,000 μM; carbomethoxypropionyl cyanide (compound 13) in a range of 100 μM-300 μM. After four days of cultivation, the number of cells per bottle was counted. The results are shown in FIGS. 1 and 2, and a dose dependence of the proliferation inhibition compared to the control sample without addition of a compound according to the invention can be seen.

[1] = tested on: glycolysis of Novikoff-Zellen hepatoma cells; experiment: Inhibition of glycolysis of Novikoff cells (lactate produced for glucose consumed); format: cell-based

Compound | inhibition of tumor cell growth (proliferation inhibition, cell density) (Novikoff hepatoma cells) | inhibition of glycolysis flow, lactate produced for glucose consumed ([1]; FIG. 3) | inhibition of glycolysis flow, lactate produced for glucose consumed ([1]; FIG. 3, listed as CMPC)
COC(=O)CCC(=O)C#N [carbomethoxypropionyl cyanide] | dose-dependent inhibition of tumor cell growth | massively inhibits the glycolysis flow | inhibition of glycolysis
N[C@H]1CONC1=O [L-glycoserine, L-cycloserine] | dose-dependent inhibition of tumor cell growth |  | 
